From paper PMC9050923, “6,N^2-Diaryl-1,3,5-triazine-2,4-diamines: synthesis, antiproliferative activity and 3D-QSAR modeling” (RSC Advances, 2020)

How the values were obtained:
MCF-7 = assay: MTT assay, MCF-7 breast cancer cells; type: cell-based; conditions: Homo sapiens, MCF7, 10 μM, 72 h after the treatment, mean of three independent experiments, read-out: Percentage of cell viability MCF-7
In short: (§1)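 Cells seeded 24 h at 37 °C, 5% CO2, then treated 72 h with a concentration range; single-point screen at 10 μM gave % viability. MTT (0.5 mg/mL, 4 h), DMSO-solubilised, A570; GI50 from sigmoidal curves, mean of three experiments.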

SKBR-3 = assay: MTT assay, SKBR-3 breast cancer cells; type: cell-based; conditions: Homo sapiens, SK-BR-3; 10 μM, 72 h after the treatment, MTT, mean of three independent experiments; read-out: Percentage of cell viability SKBR-3
In short: as §1

MDA-MB231 = assay: MTT assay, MDA-MB231 breast cancer cells; type: cell-based; conditions: Homo sapiens, MDA-MB-231; 10 μM, 72 h after the treatment, MTT, mean of three independent experiments; read-out: Percentage of cell viability MDA-MB231
In short: as §1

| melting point [°C] | Compound | viability at 10 µM (MCF-7) [%] | viability at 10 µM (SKBR-3) [%] | viability at 10 µM (MDA-MB231) [%] |
| --- | --- | --- | --- | --- |
| 139 to 140 | Nc1nc(Nc2ccc(F)cc2)nc(-c2ccc(OC(F)(F)F)cc2)n1 [Compound 91, N ^2-(4-Fluorophenyl)-6-(4-(trifluoromethoxy)phenyl)-1,3,5-triazine-2,4-diamine] | 100 | 86 | 53 |
| 177 to 179 | Nc1nc(Nc2ccc(F)cc2)nc(-c2ccc(OCc3ccccc3)cc2)n1 [Compound 111, 6-(4-(Benzyloxy)phenyl)-N^2-(4-fluorophenyl)-1,3,5-triazine-2,4-diamine] | 89 | 84 | 69 |
| 165 to 167 | COc1ccccc1Nc1nc(N)nc(-c2cccs2)n1 [Compound 122, N ^2-(2-Methoxyphenyl)-6-(thiophen-2-yl)-1,3,5-triazine-2,4-diamine] | 91 | 97 | 78 |
